# Measured values: patent publication US10562912B2 (C&C Research Laboratories, priority 2013, dated 2020)
# What was measured:
# Type in all cases: cell-based
# MDA-MB-361 = assay: Cell growth inhibition assay, cell line MDA-MB-361; settings: Homo sapiens, MDA-MB-361 cells
# BT-549 = assay: Cell growth inhibition assay, breast cancer cell line BT-549; settings: Homo sapiens, BT-549 breast cancer cell line
# Procedure: (§1) The inhibitory effects of the compounds of the present invention against the growth of cancer cells were evaluated as shown below. The cancer cell lines including stomach cancer cell line (AGS), breast cancer cell lines (MDA-MB-231, MDA-MB-468, and BT-549), prostate cancer cell lines (LNCaP and DU-145), colon cancer cell line (HCT116), ovarian cancer cell line (SW626), liver cancer cell line (Hep3B), kidney cancer cell line (ACHN), lung cancer cell line (NCI-H23) and blood cancer cell lines (HEL92.1.7 and U266) were cultured under the protocol provided by each supplier. A medium supplemented with 10 ng/mL of IL-6 was used for LNCaP, a prostate cancer cell line, when treated with a drug. Each type of cells to be used in experiments were sub-cultured in a 96-well plate by counting the exact number of cells using Tali™ Image-based Cytometer (Life Technologies). In a 96-well plate, AGS, HCT116, and DU-145 were employed with 3,000 cells/well; NCI-H23, SW626, Hep3B, ACHN, BT-549, MDA-MB-231, HEL92.1.7, and U266 were employed with 5,000 cells/well; and LNCaP and MDA-MB-468 were employed with 10,000 cells/well. The cells were treated with the compounds listed in Examples which were diluted in various concentrations. Upon completion of the compounds treatment, AGS, HCT116, SW626, DU145, NCI-H23, Hep3B, ACHN, BT-549, LNCaP, HEL92.1.7, and U266 cells were cultured at 37° C. under 5% CO2 for from 72 to 96 hours, and MDA-MB-231 and MDA-MB-468 cells were cultured at 37° C. in air for from 72 to 96 hours. Subsequently, the cells were observed under microscope and drug precipitation and particular findings were investigated and recorded. And then, the 96-well plate was placed at room temperature for 30 minutes, added with 20 μL/well of CellTiter-Glo solution (Cat No. G7573, Promega) and shaken for 10 minutes, followed by being subjected to the measurement using PHERAstar™ microplate reader (BMG LABTECH) according to the supplier's general luminometer protocol. Wells where only culture liquid added without cell plating were used as a negative control, whereas wells where culture liquid containing 0.1% DMSO instead of the compounds listed in Examples were used as a positive control.
# SW1417 = assay: Cell growth inhibition assay, cell line SW1417; settings: Homo sapiens, SW1417 cells
# HCT116 = assay: Cell growth inhibition assay, colon cancer cell line HCT116; settings: Homo sapiens, HCT-116 colon cancer cell line
# Procedure: as §1, with “Wells where only culture liquid added without cell plating were used as a negative control, whereas wells where culture liquid containing 0.1% DMSO instead of the compounds listed in Examples were used as a positive control.” left out
# NCI-H1650 = assay: Cell growth inhibition assay, cell line NCI-H1650; settings: Homo sapiens, NCI-H1650 cells
# HEL92.1.7 = assay: Cell growth inhibition assay, blood cancer cell line HEL92.1.7; settings: Homo sapiens, HEL 92.1.7, HEL92.1.7 blood cancer cell line
# Procedure, shortened: (§2)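 Cells were seeded at 3,000/well (HCT116, DU-145) or 5,000/well (SW626 and the others) and exposed to serial compound dilutions for 72 to 96 h at 37 °C under 5% CO2. Viability was read as CellTiter-Glo luminescence against 0.1% DMSO and cell-free wells.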
# SW626 = assay: Cell growth inhibition assay, ovarian cancer cell line SW626; settings: Homo sapiens
# Procedure: as §1, with “Wells where only culture liquid added without cell plating were used as a negative control, whereas wells where culture liquid containing 0.1% DMSO instead of the compounds listed in Examples were used as a positive control.” left out
# HCC1500 = assay: Cell growth inhibition assay, cell line HCC1500; settings: HCC1500 cells
# IM-9 = assay: Cell growth inhibition assay, cell line IM-9; settings: Homo sapiens, IM-9 cells
# Hep3B = assay: Cell growth inhibition assay, liver cancer cell line Hep3B; settings: Homo sapiens
# Procedure: as §1
# Raji = assay: Cell growth inhibition assay, cell line Raji; settings: Homo sapiens, Raji cells
# ACHN = assay: Cell growth inhibition assay, kidney cancer cell line ACHN; settings: Homo sapiens
# Procedure: as §1, with “Wells where only culture liquid added without cell plating were used as a negative control, whereas wells where culture liquid containing 0.1% DMSO instead of the compounds listed in Examples were used as a positive control.” left out
# DU-145 = assay: Cell growth inhibition assay, prostate cancer cell line DU-145; settings: Homo sapiens, DU-145 prostate cancer cell line
# Procedure, shortened: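 Readout was CellTiter-Glo luminescence after 72–96 h of compound exposure at 37 °C, 5% CO2. Plating density was 3,000 cells/well for DU-145 and HCT116 and 5,000 cells/well for SW626. Controls were 0.1% DMSO wells and medium-only wells.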
# NCI-H661 = assay: Cell growth inhibition assay, cell line NCI-H661; settings: Homo sapiens, NCI-H661 cells
# NCI-H23 = assay: Cell growth inhibition assay, lung cancer cell line NCI-H23; settings: Homo sapiens
# Procedure: as §1, with “Wells where only culture liquid added without cell plating were used as a negative control, whereas wells where culture liquid containing 0.1% DMSO instead of the compounds listed in Examples were used as a positive control.” left out
# MDA-MB-468 = assay: Cell growth inhibition assay, breast cancer cell line MDA-MB-468; settings: Homo sapiens, MDA-MB-468 breast cancer cell line
# Procedure: as §1
# C-33A = assay: Cell growth inhibition assay, cell line C-33A; settings: Homo sapiens, C-33A cells
# STAT3 = biological target: T1, STAT3 (Homo sapiens, UniProt P40763); assay: STAT3 reporter gene assay (luciferase), LNCaP stable cell line (pSTAT3-TA-luc), IL-6 stimulation
# T1 construct: plasmid pSTAT3-TA-luc), which contains a stably operating STAT3 promoter; endogenous in cells
# Procedure, shortened: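 Cytotoxicity was run on a duplicate plate with CellTiter-Glo, while the other plate gave luciferase read-outs from lysed LNCaP pSTAT3-TA-luc reporter cells. Cells were treated with graded compound concentrations plus IL-6 (10 ng/mL final) for 24–48 h in 3% DCC-FBS medium. Unstimulated and stimulated wells served as negative and positive controls.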
# NCI-H508 = assay: Cell growth inhibition assay, cell line NCI-H508; settings: Homo sapiens, NCI-H508 cells
# MDA-MB-231 = assay: Cell growth inhibition assay, breast cancer cell line MDA-MB-231; settings: Homo sapiens; MDA-MB-231 breast cancer cell line, 5,000 cells/well
# LNCaP = assay: Cell growth inhibition assay, prostate cancer cell line LNCaP (medium with 10 ng/mL IL-6); settings: Homo sapiens, medium supplemented with 10 ng/mL of IL-6, 10,000 cells/well
# U266 = assay: Cell growth inhibition assay, blood cancer cell line U266; settings: Homo sapiens, U-266 blood cancer cell line
# Procedure, shortened: as §2
# AGS = assay: Cell growth inhibition assay, stomach cancer cell line AGS; settings: Homo sapiens; AGS stomach cancer cell line, 3,000 cells/well
# T1 sequence (P40763 whole entry): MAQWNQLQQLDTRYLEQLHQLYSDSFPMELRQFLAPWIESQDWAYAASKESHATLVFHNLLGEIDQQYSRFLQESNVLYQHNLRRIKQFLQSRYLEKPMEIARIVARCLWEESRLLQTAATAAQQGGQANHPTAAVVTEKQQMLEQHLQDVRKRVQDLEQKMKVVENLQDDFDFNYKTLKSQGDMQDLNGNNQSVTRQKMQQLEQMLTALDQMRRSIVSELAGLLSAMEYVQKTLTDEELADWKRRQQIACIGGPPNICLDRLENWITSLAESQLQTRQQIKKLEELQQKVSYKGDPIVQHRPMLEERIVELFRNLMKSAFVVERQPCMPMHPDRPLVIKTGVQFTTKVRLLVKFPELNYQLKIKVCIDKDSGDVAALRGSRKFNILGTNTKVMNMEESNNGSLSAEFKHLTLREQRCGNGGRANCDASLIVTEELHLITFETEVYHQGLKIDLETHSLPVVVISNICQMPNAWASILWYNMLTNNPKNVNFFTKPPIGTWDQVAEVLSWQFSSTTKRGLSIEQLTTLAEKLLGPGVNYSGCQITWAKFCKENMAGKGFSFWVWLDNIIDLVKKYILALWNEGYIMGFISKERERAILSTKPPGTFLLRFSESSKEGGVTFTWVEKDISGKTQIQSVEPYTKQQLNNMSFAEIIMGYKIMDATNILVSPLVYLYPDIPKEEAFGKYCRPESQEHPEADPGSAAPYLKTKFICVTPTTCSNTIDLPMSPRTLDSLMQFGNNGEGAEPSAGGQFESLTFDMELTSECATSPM
IC50 (BT-549),IC50 (HCT116),IC50 (HEL92.1.7),IC50 (SW626),IC50 (Hep3B),IC50 (ACHN),IC50 (DU-145),IC50 (NCI-H23),IC50 (MDA-MB-468),IC50 (STAT3),IC50 (MDA-MB-231),IC50 (LNCaP),SMILES,also measured
1 µM,1.5 µM,1.3 µM,0.29 µM,2.2 µM,0.37 µM,0.37 µM,1.7 µM,0.14 µM,0.2 µM,0.18 µM,0.463 µM,"CN(c1ccc2cc(C(=O)Nc3cccc(-c4ccccc4C(F)(F)F)c3)[nH]c2c1)S(C)(=O)=O [Example 346, 6-(N-methylmethylsulfonamido)-N-(2′-(trifluoromethyl)-[1,1′-biphenyl]-3-yl)-1H-indole-2-carboxamide]",IC50 (MDA-MB-361): 0.28 µM; IC50 (SW1417): 0.35 µM; IC50 (NCI-H1650): 0.62 µM; IC50 (HCC1500): 1.03 µM; IC50 (IM-9): 0.51 µM; IC50 (Raji): 0.57 µM; IC50 (NCI-H661): 0.09 µM; IC50 (C-33A): 0.3 µM; IC50 (NCI-H508): 0.22 µM
0.26 µM,0.31 µM,0.14 µM,0.066 µM,2.1 µM,0.004 µM,0.024 µM,0.3 µM,0.02 µM,0.112 µM,0.025 µM,0.48 µM,"COc1cc(OC(F)(F)F)cc(C(C)(C)c2cc(Br)cc(NC(=O)c3cc4ccc(NS(C)(=O)=O)cc4[nH]3)c2)c1 [Example 16, N-(3-bromo-5-(2-(3-methoxy-5-(trifluoromethoxy)phenyl)propan-2-yl)phenyl)-6-(methylsulfonamido)-1H-indole-2-carboxamide]",IC50 (U266): 0.25 µM; IC50 (AGS): 0.044 µM
